Laboratory results taken from patent US10780069B2, “Use of GC-1 in transplant related population” (University of Pittsburgh—Of the Commonwealth System of …, priority 2017, dated 2020).
Entries after “also recorded” stand apart in the source; their conditions may differ.

Columns and labels:
[1] = tested on: hepatocytes; assay: Partial hepatectomy after pretreatment with T3 or GC-1 supplemented diet; format: in vivo, mice
Protocol: (§1) To label dividing hepatocytes, BrdU (5-bromodeoxyuridine) dissolved in drinking water (1 mg/ml) was given to all animals throughout the experiment period. The animals were given food and water ad libitum with a 12-hour light/dark daily cycle.
After 7 days of receiving T3 supplemented diet (n=3) or GC-1 diet (n=3) or standard basal mouse chow (n=3), C57BL/6 male mice underwent partial hepatectomy as described previously (Tan et al. (2006) Gastroenterology 131, 1561-1572). Anesthesia was provided with inhaled Isoflurane. The animals were sacrificed 24 hours post hepatectomy, after Isoflurane anesthesia and cervical dislocation. Serum and liver tissue were harvested for further processing.
(§2) Four micron liver sections were analyzed by immunohistochemistry for β-Catenin (BD Biosciences, San Jose, Calif.), Cyclin-D1 (Thermo-Scientific, Fremont, Calif.) and PCNA (Santa Cruz Biotechnology, Dallas, Tex.). Briefly, formalin-fixed sections were deparaffinized in graded xylene and alcohol. Endogenous peroxidase was inactivated using 3% hydrogen peroxide (Sigma). For β-Catenin, Cyclin-D1 staining, slides were microwaved in Citrate buffer followed by blocking with Superblock for 10 minutes. Sections were then incubated with secondary anti-mouse (for β-catenin) or anti-rabbit (for Cyclin-D1) horseradish peroxidase-conjugated antibody for 30 minutes.
(§3) Bromodeoxyuridine (BrdU) was stained with mouse antibody (Becton Dickinson) as previously described (Fanti et al. (2014) Hepatology 59, 2309-2320). Briefly, tissue sections were deparaffinized, exposed to 0.3% hydrogen peroxide in deionized water for 10 minutes to block endogenous peroxidase, treated with 2N HCl, incubated with trypsin 0.1% for 20 minutes and then with normal goat serum for 20 minutes at room temperature. Sections were then incubated overnight in cold room with anti-BrdU monoclonal antibody, followed by biotinylated goat anti-mouse IgG. DAB kit was then applied, and sections were counterstained with hematoxylin. A small segment of intestine was included from each mouse as a positive control for the staining. For quantification of BrdU staining, at least 10 high power fields (400× or 600×) fields each from at least three biological replicates were counted as indicated in the figures. Statistical analysis was performed as described below.

[2] = Serum ALT/bilirubin and hepatic histology after GC-1 or T3; format: in vivo, mice
Protocol: (§4) All studies on mice were performed in strict accordance with Guidelines. Eight-week old male C57BL/6 male mice (Jackson/Charles River) were maintained on a standard laboratory basal diet (Test Diet) (n=4), or fed a T3-supplemented diet (4 mg/Kg of diet, Sigma Chemicals, St. Louis Mo.) (n=4). GC-1 was administered to the eight week-old male C57BL/6 male mice either via GC-1-supplemented diet (5 mg/Kg of diet, Medchem Express) for 8 days (n=4) or via daily intraperitoneal injections (IP) of GC-1 dissolved in DMSO (0.3 mg/kg/dose) for 8 days (n=7). As a control group for injections, DMSO alone was injected daily intraperitoneal (IP) for 8 days (n=5). Mice were sacrificed 24 hours after the last injection.

[3] = tested on: hepatocytes; assay: Daily IP injections of GC-1 in wild type C57BL/6 mice: hepatocyte proliferation, β-catenin activation, cyclin-D1; format: in vivo; conditions: vs DMSO control
Protocol: as §4, §1, §2
For PCNA, slides were microwaved in zinc sulfate for 12 minutes, followed by blocking with Superblock for 20 minutes. Sections were incubated with PCNA antibody (Santa Cruz) diluted 1:4,000 in phosphate buffered saline (PBS) for 60 minutes. Slides then incubated with horse anti-mouse secondary antibody (1:700 dilution) for 30 minutes. ABC was applied for 30 minutes. DAB kit was then applied. Slides were then dehydrated, coverslips placed, and allowed to dry.
as §3
Protein extraction from frozen liver tissue and western blot analysis were performed as previously described (Fanti et al., (2014) Hepatology 59, 2309-2320). For protein extraction, a small amount of frozen liver tissue was obtained (over dry ice) and was homogenized using RIPA buffer with protease and phosphatase inhibitor cocktail (Sigma, St. Louis, Mo.). Samples were transferred to a 1.5 ml tube on ice, and spun in cold room centrifuge at 14,000 RPM for 5 minutes. […]

[4] = tested on: β-catenin-TCF4 reporter activity in Snu-398 cells (point-mutant β-catenin); assay: TopFlash reporter assay in Snu-398 cells; format: cell-based, human; conditions: 7 μM GC-1 (methods: 5-7 μM, 24 hours), vs DMSO
Text: Three liver tumor cell lines Hep3B, HepG2 and Snu-398 cells were obtained from ATCC (Manassas, Va.). Cells were transfected simultaneously with Renilla reniformis luciferase (pRL-TK; Promega, Madison, Wis.) as a transfection control and TopFlash firefly luciferase plasmids (Upstate Biotechnology, Lake Placid, N.Y.), which contains three copies of the Tcf/Lef sites upstream of a thymidine kinase (TK) promoter and the firefly luciferase gene using Lipofectamine 2000 (Life Technologies). Twenty-four hours after transfection, cells were treated with either DMSO (Fisher Scientific) or 5-7 μM GC-1 (Medchem Express, Monmouth Junction, N.J.) for 24 hours. Lysates were harvested using the Dual-Luciferase Reporter Assay System (Promega, Madison, Wis.). Firefly luciferase signals were normalized to Renilla luciferase and ratio between groups compared by student's t-test to determine significance. P<0.05 was considered significant.

[5] = tested on: preneoplastic hepatocytes; conditions: resistant-hepatocyte model of hepatocarcinogenesis (T3, rats); Ledda-Columbano 2000, Perra 2009; cited from earlier work

Cc1cc(OCC(=O)O)cc(C)c1Cc1ccc(O)c(C(C)C)c1 [GC-1, Sobetirome]
nuclear cyclin-D1 immunohistochemistry at 24 hours after hepatectomy ([1]; 24 hours after hepatectomy): panlobular distribution | BrdU positive hepatocyte nuclei at 24 hours after hepatectomy ([1]; diet pretreatment, vs basal diet): pronounced increase | increase in hepatocyte proliferation over the 24-hour liver regeneration period ([1]; pre-hepatectomy vs 24 hour-post hepatectomy, same animals, all three mice): around 2 fold | cyclin-D1 immunohistochemistry in resected lobes at time of hepatectomy ([1]; pretreatment livers): expansion of cyclin-D1 positive hepatocytes in the midzonal area | BrdU-positive hepatocytes in resected lobes at time of hepatectomy ([1]; seven-day pretreatment, vs basal diet): increased BrdU-positive hepatocytes | serum ALT or total bilirubin ([2]; GC-1 0.3 mg/Kg/dose daily IP 8 days, vs DMSO control): insignificant differences | hepatic histology (H&E) ([2]; GC-1 daily IP 8 days, vs DMSO control): normal hepatic histology | histological changes in the livers ([2]; T3 (4 mg/Kg of diet) or GC-1 (5 mg/Kg of diet) chow 8 days, vs basal diet): no histological changes | PCNA-positive hepatocytes and BrdU incorporation (hepatocyte proliferation) ([3]; GC-1 0.3 mg/Kg/dose daily IP in DMSO, 8 days, 0.3 mg/kg): increased number of PCNA-positive hepatocytes as well as BrdU incorporation; also recorded: increased proliferation | P-Ser675-β-catenin level, Western blot of whole liver lysates ([3]; GC-1 0.3 mg/Kg/dose daily IP): increased | cyclin-D1 immunohistochemistry ([3]; GC-1 0.3 mg/Kg/dose daily IP): many positive hepatocytes | cyclin-D1 level, Western blot of whole liver lysates ([3]; GC-1 0.3 mg/Kg/dose daily IP): increased | total β-catenin level, Western blot ([3]; GC-1 0.3 mg/Kg/dose daily IP): did not show much difference | TopFlash luciferase reporter activity [4]: no significant effect; also recorded: insignificant differences | effect on preneoplastic lesions / carcinogenic process [5]: negatively influence the carcinogenic process
